Results reported in patent publication US20040116505A1, “Treatment of tics, tremors and related disorders” (priority 2001, published 2004).

What was measured:
[1] = test system: patients suffering from tics; assay: Study in five patients suffering from tics who failed standard drug therapies; format: in vivo, human; settings: five patients non-responsive to standard tic therapies; 250 mg BID or 500 mg BID to 1500 mg BID
Protocol: Patients received either Low (250 mg BID) or standard doses (500 mg BID to 1500 mg BID) of levetiracetam.

[2] = cited from earlier work
[3] = in vivo; cited from earlier work

For `CC[C@@H](C(N)=O)N1CCCC1=O` [levetiracetam, (S)-2-(2-Oxo-pyrrolidin-1-yl)-butyramide], the “reduction of tic symptoms” value [1] is listed as “majority of patients experienced a reduction of tic symptoms”, the “levetiracetam excreted unchanged or as an inactive metabolite” value ([2]; in vivo) is listed as 90% and the oral bioavailability ([2]; oral) is listed as about 100%. For the same compound, the side effects [3] was “minimal side effects”.
